The supplement of paper PMC5908809

How the values were obtained:
Assay in all cases: relative IC50 (inflection point of fitted viability curve, relative to fitted max inhibition); higher = less sensitive
Settings in all cases: 72 h
KHYG-1 (IL-2 2.5 ng/mL) = system: KHYG-1 (IL-2 2.5 ng/mL)
Method: (§1)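 Drug sensitivity and resistance testing: 5 concentrations over a 10,000-fold range, 72 h at 37 °C, viability by CellTiter-Glo normalised to DMSO and benzethonium chloride controls. IC50 is the inflection point of a logistic fit (min fixed at 0, max fitted), so it is relative to the fitted maximal inhibition. Kept only where fitted max inhibition is at least 50%.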

YT (IL-2 2.5 ng/mL) = system: YT (IL-2 2.5 ng/mL)
Method: as §1

[1] = system: normal primary NK cells, pool 2 (3 donors) (IL-2 2.5 ng/mL)
Method: as §1

DERL-7 (IL-2 2.5 ng/mL) = system: DERL-7 (IL-2 2.5 ng/mL)
Method: as §1

[2] = system: normal primary NK cells, pool 1 (3 donors) (IL-2 2.5 ng/mL)
Method: as §1

[3] = system: normal primary NK cells, pool 1 (3 donors), resting (IL-2 0 ng/mL)
Method: as §1

NKL (IL-2 2.5 ng/mL) = system: NKL (IL-2 2.5 ng/mL)
Method: as §1

[4] = system: normal primary NK cells, pool 3 (3 donors) (IL-2 2.5 ng/mL)
Method: as §1

IMC-1 (IL-2 20 ng/mL) = system: IMC-1 (IL-2 20 ng/mL)
Method: as §1

NK-YS (IL-2 2.5 ng/mL) = system: NK-YS (IL-2 2.5 ng/mL)
Method: as §1

SNK-6 (IL-2 2.5 ng/mL) = system: SNK-6 (IL-2 2.5 ng/mL)
Method: as §1

KAI3 (IL-2 2.5 ng/mL) = system: KAI3 (IL-2 2.5 ng/mL)
Method: as §1

NK-92 (IL-2 2.5 ng/mL) = system: NK-92 (IL-2 2.5 ng/mL)
Method: as §1

Compound | relative IC50 (KHYG-1 (IL-2 2.5 ng/mL)) | relative IC50 (YT (IL-2 2.5 ng/mL)) | relative IC50 [1] | relative IC50 (DERL-7 (IL-2 2.5 ng/mL)) | relative IC50 [2] | relative IC50 [3] | relative IC50 (NKL (IL-2 2.5 ng/mL)) | relative IC50 [4] | relative IC50 (IMC-1 (IL-2 20 ng/mL)) | relative IC50 (NK-YS (IL-2 2.5 ng/mL)) | relative IC50 (SNK-6 (IL-2 2.5 ng/mL)) | relative IC50 (KAI3 (IL-2 2.5 ng/mL)) | relative IC50 (NK-92 (IL-2 2.5 ng/mL))
CC(C)C[C@@H](C(=O)N[C@H](C(=O)OC1CCCC1)c1ccccc1)[C@H](O)C(=O)NO [Tosedostat] | 606 nM | 1520 nM | 903 nM | 23.3 nM | 942 nM | 274 nM | 1960 nM |  |  |  |  |  | 
CC1=C(/C=C/C(C)=C/C=C/C(C)=C/C(=O)O)C(C)(C)CCC1 [Tretinoin] |  |  |  |  |  |  |  | > 10000 nM | > 10000 nM |  |  |  | 
Cc1c2oc3c(C)ccc(C(=O)N[C@@H]4C(=O)N[C@H](C(C)C)C(=O)N5CCC[C@H]5C(=O)N(C)CC(=O)N(C)[C@@H](C(C)C)C(=O)O[C@@H]4C)c3nc-2c(C(=O)N[C@@H]2C(=O)N[C@H](C(C)C)C(=O)N3CCC[C@H]3C(=O)N(C)CC(=O)N(C)[C@@H](C(C)C)C(=O)O[C@@H]2C)c(N)c1=O [Dactinomycin] | 2.49 nM | 0.98 nM | 5.98 nM | 1.43 nM | 13.4 nM | 4.39 nM | 0.68 nM | 12.7 nM | 12.2 nM | 0.55 nM | 0.27 nM | 4.77 nM | 24.7 nM
Cn1cc(C2=Nc3cc(NC(=O)C(N)C4CCCCC4)cc4c3C2=CNNC4=O)cn1 (configuration not stated) | 134 nM | 492 nM | 2370 nM | 1000 nM | 3520 nM |  | 652 nM | 1960 nM | 259 nM | 442 nM | 238 nM | 215 nM | 505 nM
Cc1cc(C(C)Nc2ccccc2)c2nc(N3CCOCC3)cc(=O)n2c1 (configuration not stated) [TGX-221] |  |  |  |  |  | 1450 nM |  |  | > 10000 nM |  |  |  | 
O=C1NC(=O)/C(=C/c2ccc3nccc(-c4ccncc4)c3c2)S1 | 681 nM | 529 nM | 1250 nM | 543 nM | 749 nM | 116 nM | 644 nM | 1650 nM |  | 810 nM | 1100 nM | 846 nM | 1200 nM
O=C(/C=C/c1cccnc1)NCCCCC1CCN(C(=O)c2ccccc2)CC1 [Daporinad] | 3.01 nM | 6.27 nM | 0.63 nM | 1.27 nM | 0.52 nM | 0.29 nM | 2.57 nM | 0.87 nM | 3.61 nM | 0.77 nM | 0.75 nM | 3.88 nM | 6.07 nM
COc1cc(O)c2c(c1)/C=C/C[C@H](O)[C@H](O)C(=O)/C=C\C[C@H](C)OC2=O [(5Z)-7-Oxozeaenol] | 480 nM | 1060 nM | 1600 nM | 572 nM | 782 nM | 688 nM | 156 nM | 2050 nM |  | 1140 nM | 1560 nM | 797 nM | 1510 nM
COCC1(CO)C(=O)C2CCN1CC2 (configuration not stated) [APR-246] |  |  | 393 nM |  | 566 nM | 277 nM |  | 442 nM |  |  |  |  | 
Cc1sc2c(c1C)C(c1ccc(Cl)cc1)=N[C@@H](CC(=O)Nc1ccc(O)cc1)c1nnc(C)n1-2 [OTX015] | 145 nM | 241 nM | 393 nM | 48.1 nM | 171 nM |  | 75.2 nM | 804 nM | 630 nM | 229 nM | 43 nM | 437 nM | 
O=C(c1ccc(/C=C/c2n[nH]c3ccccc23)cc1)N1CCNCC1 [KW-2449] | 807 nM |  |  | 920 nM |  |  |  | > 2500 nM | > 2500 nM |  | 687 nM |  | 
NCC(=O)Nc1ccc(-n2nc(C(F)(F)F)cc2-c2ccc3c(ccc4ccccc43)c2)cc1 | 1310 nM | 5540 nM | 7200 nM |  |  |  | 4070 nM | 7230 nM | 4370 nM | 1980 nM | 3810 nM | 4900 nM | 4950 nM
CCS(=O)(=O)N1CC(CC#N)(n2cc(-c3ncnc4[nH]ccc34)cn2)C1 [Baricitinib] | 26.2 nM | 163 nM | 54.4 nM | 51.9 nM | 46.9 nM |  | 12 nM | 124 nM | 451 nM | 63.5 nM | 73.3 nM | 18.4 nM | 95.8 nM
CNC(=O)c1ccc(N2C(=S)N(c3ccc(C#N)c(C(F)(F)F)c3)C(=O)C2(C)C)cc1F [Enzalutamide] |  |  |  | > 10000 nM |  |  |  | > 10000 nM |  |  |  | > 10000 nM | 
Cc1cc(Nc2cc(CN3CCOCC3)c3nc(C)c(Cc4ccc(Cl)cc4F)n3n2)n[nH]1 [Gandotinib] | 107 nM | 448 nM | 183 nM | 163 nM | 362 nM |  | 75 nM | 669 nM | 1260 nM | 260 nM | 230 nM | 89.6 nM | 236 nM
CC(C)Oc1ccc(C(=O)N[C@H](CNC(=O)CN(C)C)Cc2ccc(-c3cn4cccc([C@H](C)O)c4n3)cc2)cc1Cl | 123 nM | 48.2 nM |  | 70.3 nM |  | 4570 nM | 54.3 nM |  | 261 nM | 56.7 nM | 24.9 nM | 439 nM | 204 nM
COc1cccc2c1c(O)c(C(=O)N(C)c1ccc(C(F)(F)F)cc1)c(=O)n2C [Tasquinimod] |  |  | > 10000 nM | > 10000 nM |  |  |  | > 10000 nM |  |  |  |  | 
O=c1[nH]c(=O)n([C@H]2C[C@H](O)[C@@H](CO)O2)cc1F [Floxuridine] | 8.42 nM | 286 nM |  | 31 nM |  |  | 75.2 nM | > 10000 nM | 128 nM | 28.9 nM | 68.6 nM | 10.1 nM | 19.5 nM
O=C(Nc1ccc2[nH]nc(-c3ccncc3)c2c1)[C@@H]1CCN(CC(=O)N2CCN(c3ccc(-c4ncccn4)cc3)CC2)C1 | 784 nM |  |  | 382 nM |  | 1670 nM | 516 nM |  | > 10000 nM |  |  |  | 
FC(F)(F)c1ccc(/C=C/c2nc(COc3ccc(CCCCn4ccnn4)cc3)co2)cc1 [Mubritinib] | 45.7 nM |  |  |  | 12.2 nM | 12 nM | 56 nM |  | 11.2 nM | 42 nM |  |  | 
CC(=O)N(O)CCCCCNC(=O)CCC(=O)N(O)CCCCCNC(=O)CCC(=O)N(O)CCCCCN [Deferoxamine] |  |  |  |  |  |  |  | 1580 nM | 3210 nM |  |  |  | 
Cc1ccc2nc(CN(CCN(Cc3nc4ccc(C)cc4[nH]3)Cc3nc4ccc(C)cc4[nH]3)Cc3nc4ccc(C)cc4[nH]3)[nH]c2c1 | 6250 nM | 7070 nM |  | 8270 nM | 7650 nM | 8020 nM | 2160 nM |  | 8640 nM | 8980 nM | 18200 nM | 3470 nM | 3900 nM
CNC(=O)c1cc(Oc2ccc(NC(=O)Nc3cc(C(C)(C)C)nn3-c3ccc4ncccc4c3)c(F)c2)ccn1 [Rebastinib] |  |  | > 1000 nM |  | > 1000 nM |  |  | > 1000 nM |  |  |  |  | 
COc1cc2ncnc(Nc3ccc(F)c(Cl)c3)c2cc1OCCCN1CCOCC1 [Gefitinib] | 2270 nM | 2390 nM |  | 3010 nM |  | 3700 nM | 1770 nM |  |  |  |  | 1710 nM | 2660 nM
CCS(=O)(=O)c1cccc(-c2cc(C(=O)NC3CCN(C)CC3)c(C)c3[nH]c4ncc(C)cc4c23)c1 [TAK-901] | 208 nM |  |  | 50.2 nM | 303 nM |  | 105 nM |  | 116 nM | 30.8 nM | 135 nM | 116 nM | 
Cc1cnc(NC(=O)Nc2cc(Br)c(C)cc2OC[C@@H]2CNCCO2)cn1 [Rabusertib] | 197 nM |  |  |  | > 1000 nM |  | 192 nM |  |  | 279 nM | 179 nM | 203 nM | 172 nM
CC1(C)CCC(CN2CCN(c3ccc(C(=O)NS(=O)(=O)c4ccc(NCC5CCOCC5)c([N+](=O)[O-])c4)c(Oc4cnc5[nH]ccc5c4)c3)CC2)=C(c2ccc(Cl)cc2)C1 [Venetoclax] | 1280 nM | 415 nM |  | 211 nM | 859 nM | 8.76 nM | 115 nM |  |  | 1450 nM | 34.8 nM | 7.28 nM | 1730 nM
